Test results published in patent publication US10508120B2, “TYK2 inhibitors and uses thereof” (Nimbus Lakshmi, Inc., priority 2017, dated 2019).

Biological target: human TYK2 (JH2domain-pseudokinase) (Homo sapiens (Human), UniProt P29597)
Assay: TYK2 JH2 Domain Binding Assay (KINOMEscan)
Experimental: Binding constants for compounds of the present invention against the JH2 domain were determined by the following protocol for a KINOMEscan® assay (DiscoveRx). A fusion protein of a partial length construct of human TYK2 (JH2domain-pseudokinase) (amino acids G556 to D888 based on reference sequence NP_003322.3) and the DNA binding domain of NFkB was expressed in transiently transfected HEK293 cells. From these HEK 293 cells, extracts were prepared in M-PER extraction buffer (Pierce) in the presence of Protease Inhibitor Cocktail Complete (Roche) and Phosphatase Inhibitor Cocktail Set II (Merck) per manufacturers' instructions. The TYK2 (JH2domain-pseudokinase) fusion protein was labeled with a chimeric double-stranded DNA tag containing the NFkB binding site (5′-[…]-3′) fused to an amplicon for qPCR readout, which was added directly to the expression extract (the final concentration of DNA-tag in the binding reaction is 0.1 nM).
The liganded beads were blocked with excess biotin and washed with blocking buffer (SeaBlock (Pierce), 1% BSA, 0.05% Tween 20, 1 mM DTT) to remove unbound ligand and to reduce nonspecific binding.
Extracts were used directly in binding assays without any enzyme purification steps at a ≥10,000-fold overall stock dilution (final DNA-tagged enzyme concentration <0.1 nM). Extracts were loaded with DNA-tag and diluted into the binding reaction in a two step process. First extracts were diluted 1:100 in 1× binding buffer (PBS/0.05% Tween 20/10 mM DTT/0.1% BSA/2 μg/ml sonicated salmon sperm DNA) containing 10 nM DNA-tag. This dilution was allowed to equilibrate at room temperature for 15 minutes and then subsequently diluted 1:100 in 1× binding buffer. […] Kds were determined using an 11-point 3-fold compound dilution series with three DMSO control points. […] The compounds were then diluted directly into the assays such that the final concentration of DMSO was 0.9%. All reactions performed in polypropylene 384-well plates. Each was a final volume of 0.02 mL. Assays were incubated with shaking for 1 hour at room temperature. Then the beads were pelleted and washed with wash buffer (1×PBS, 0.05% Tween 20) to remove displaced kinase and test compound. […] The qPCR protocol consisted of a 10 minute hot start at 95° C., followed by 35 cycles of 95° C. for 15 seconds, 60° C. for 1 minute.
Kds were determined using an 11-point 3-fold compound dilution series with three DMSO control points. […] The compounds were then diluted directly into the assays such that the final concentration of DMSO was 0.9%. The Kds were determined using a compound top concentration of 30,000 nM. Kd measurements were performed in duplicate.
Binding constants (Kds) were calculated with a standard dose-response curve using the Hill equation: […]
The Hill Slope was set to −1.

Sequence of human TYK2 (JH2domain-pseudokinase) (P29597 556-888): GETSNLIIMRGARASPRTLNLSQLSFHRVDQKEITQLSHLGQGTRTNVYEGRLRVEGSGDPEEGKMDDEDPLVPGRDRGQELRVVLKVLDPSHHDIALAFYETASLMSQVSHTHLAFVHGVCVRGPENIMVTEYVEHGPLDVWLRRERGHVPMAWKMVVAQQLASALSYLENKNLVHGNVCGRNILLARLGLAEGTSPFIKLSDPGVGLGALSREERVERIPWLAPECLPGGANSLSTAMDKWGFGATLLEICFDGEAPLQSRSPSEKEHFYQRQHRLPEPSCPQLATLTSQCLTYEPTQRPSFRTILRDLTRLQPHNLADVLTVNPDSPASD

SMILES	Kd [nM]
CNc1cc(-c2cn([C@H]3CCCOC3)c3ncccc23)nc2c(C(=O)N[C@H]3COC[C@H]3O)cnn12 (mixture of isomers) [I-1251, N-(4-hydroxytetrahydrofuran-3-yl)-7-(methylamino)-5-(1-((S)-tetrahydro-2H-pyran-3-yl)-1H-pyrrolo[2,3-b]pyridin-3-yl)pyrazolo[1,5-a]pyrimidine-3-carboxamide]	1 to 10
CNc1cc(-c2cn([C@@H]3CCCOC3)c3ncccc23)nc2c(C(=O)NC3CCC3O)cnn12 (mixture of isomers) [I-1257, N-(2-hydroxycyclobutyl)-7-(methylamino)-5-(1-((R)-tetrahydro-2H-pyran-3-yl)-1H-pyrrolo[2,3-b]pyridin-3-yl)pyrazolo[1,5-a]pyrimidine-3-carboxamide]	< 0.2
CNc1cc(-c2cn([C@H]3CCC[C@@H]3OC)c3ncccc23)nc2c(C(=O)NC3CCC3O)cnn12 (mixture of isomers) [I-1340, N-(2-hydroxycyclobutyl)-5-(1-((1S,2S)-2-methoxycyclopentyl)-1H-pyrrolo[2,3-b]pyridin-3-yl)-7-(methylamino)pyrazolo[1,5-a]pyrimidine-3-carboxamide]	1 to 10
CNc1cc(-c2cn([C@@H]3CCC[C@H]3OC)c3ncccc23)nc2c(C(=O)NC3CCC3O)cnn12 (mixture of isomers) [I-1341, N-(2-hydroxycyclobutyl)-5-(1-((1R,2R)-2-methoxycyclopentyl)-1H-pyrrolo[2,3-b]pyridin-3-yl)-7-(methylamino)pyrazolo[1,5-a]pyrimidine-3-carboxamide]	> 10
CNc1cc(Nc2cccn([C@H]3CCCOC3)c2=O)nc2c(C(=O)NC3CC3OC)cnn12 (mixture of isomers) [I-1415, N-(2-methoxycyclopropyl)-7-(methylamino)-5-((2-oxo-1-((S)-tetrahydro-2H-pyran-3-yl)-1,2-dihydropyridin-3-yl)amino)pyrazolo[1,5-a]pyrimidine-3-carboxamide]	0.2 to 1
CNc1cc(Nc2cccn(C3CCOCC3)c2=O)nc2c(C(=O)N[C@H]3CCC[C@]3(C)O)cnn12 (stereo in doubt) [I-1254, N-(2-hydroxy-2-methylcyclopentyl)-7-(methylamino)-5-((2-oxo-1-(tetrahydro-2H-pyran-4-yl)-1,2-dihydropyridin-3-yl)amino)pyrazolo[1,5-a]pyrimidine-3-carboxamide]	0.2 to 1
CNc1cc(Nc2cccn(C3CCOCC3)c2=O)nc2c(C(=O)N[C@@H]3CCC[C@@](C)(OC)C3)cnn12 (stereo in doubt) [I-1274, N-(3-methoxy-3-methylcyclohexyl)-7-(methylamino)-5-((2-oxo-1-(tetrahydro-2H-pyran-4-yl)-1,2-dihydropyridin-3-yl)amino)pyrazolo[1,5-a]pyrimidine-3-carboxamide]	< 0.2
CNc1cc(Nc2cccn(C3CCOCC3)c2=O)nc2c(C(=O)N[C@@H]3CC[C@@H](OC)C3)cnn12 (stereo in doubt) [I-1334, N-(3-methoxycyclopentyl)-7-(methylamino)-5-((2-oxo-1-(tetrahydro-2H-pyran-4-yl)-1,2-dihydropyridin-3-yl)amino)pyrazolo[1,5-a]pyrimidine-3-carboxamide]	< 0.2
CNc1cc(-c2cn(C3CCOCC3)c3ncccc23)nc2c(C(=O)N[C@@H]3CCC[C@@H](O)C3)cnn12 (stereo in doubt) [I-1359, N-(3-hydroxycyclohexyl)-7-(methylamino)-5-(1-(tetrahydro-2H-pyran-4-yl)-1H-pyrrolo[2,3-b]pyridin-3-yl)pyrazolo[1,5-a]pyrimidine-3-carboxamide]	< 0.2
CNc1cc(Nc2cc(C)nc(C)c2)nc2c(C(N)=O)cnn12 [I-13]	1 to 10
CNc1cc(Nc2cc(Cl)cnc2O[C@@H]2CCOC2)nc2c(C(N)=O)cnn12 [I-84]	0.2 to 1
NC(=O)c1cnn2c(N)cc(Nc3cc(Cl)cnc3O[C@@H]3CCOC3)nc12 [I-85]	1 to 10
CNc1cc(Nc2cccnc2OC(C)C)nc2c(C(=O)NC3COC3)cnn12 [I-86]	> 10
CNc1cc(Nc2cc(Cl)cnc2OC(C)C)nc2c(C(=O)NC3COC3)cnn12 [I-87]	> 10
CNc1cc(Nc2cccc(N3CCCC3=O)n2)nc2c(C(=O)NC3COC3)cnn12 [I-88]	> 10
CNc1cc(Nc2cccnc2OC)nc2c(C(=O)N[C@@H]3COC[C@@H]3O)cnn12 [I-519]	< 0.2
CNc1cc(Nc2cccnc2OC2CC2)nc2c(C(=O)N[C@H]3COC[C@H]3O)cnn12 [I-520]	0.2 to 1
CNc1cc(Nc2cc(F)cn(C3CCCOC3)c2=O)nc2c(C(=O)N[C@@H]3C[C@@H]3F)cnn12 (stereo partly drawn) [I-521]	< 0.2
CNc1cc(Nc2cc(C(F)(F)F)cn(-c3cnn(C)c3)c2=O)nc2c(C(=O)NC3CC3)cnn12 [I-523]	0.2 to 1
CNc1cc(Nc2cccn([C@@H]3CCC[C@@H]3OC)c2=O)nc2c(C(=O)NC3CC3)cnn12 [I-524]	1 to 10
CNc1cc(Nc2cccn([C@H]3CCC[C@H]3OC)c2=O)nc2c(C(=O)NC3CC3)cnn12 [I-525]	> 10
CNc1cc(-c2cn([C@@H]3CCCOC3)c3ncccc23)nc2c(C(=O)N[C@@H]3COC[C@@H]3O)cnn12 [I-1184]	< 0.2
CNc1cc(-c2cn([C@@H]3CCCOC3)c3ncccc23)nc2c(C(=O)N[C@H]3COC[C@H]3O)cnn12 [I-1185]	1 to 10

SMILES	Kd [nM]
CNc1cc(Nc2cccn([C@H]3C[C@@H]3OC)c2=O)nc2c(C(=O)N[C@@H]3CC[C@H]3OC)cnn12 [I-1186]	< 0.2
CNc1cc(Nc2cccn([C@H]3C[C@@H]3OC)c2=O)nc2c(C(=O)N[C@H]3CC[C@@H]3OC)cnn12 [I-1187]	< 0.2
CNc1cc(Nc2cccn(-c3ccc(C)nc3)c2=O)nc2c(C(=O)N[C@H]3CCC[C@H](OC)C3)cnn12 [I-1188]	1 to 10
CNc1cc(Nc2cccn(-c3ccc(C)nc3)c2=O)nc2c(C(=O)N[C@@H]3CCC[C@@H](OC)C3)cnn12 [I-1189]	< 0.2
CNc1cc(Nc2cccn([C@@H]3CCC[C@H](O)C3)c2=O)nc2c(C(=O)N[C@@H]3CC[C@H]3OC)cnn12 [I-1190]	< 0.2
CNc1cc(Nc2cccn([C@@H]3CCC[C@H](O)C3)c2=O)nc2c(C(=O)N[C@H]3CC[C@@H]3OC)cnn12 [I-1191]	< 0.2
CNc1cc(Nc2cccn([C@H]3CCC[C@@H](O)C3)c2=O)nc2c(C(=O)N[C@@H]3CC[C@H]3OC)cnn12 [I-1192]	< 0.2
CNc1cc(Nc2cccn([C@H]3CCC[C@@H](O)C3)c2=O)nc2c(C(=O)N[C@H]3CC[C@@H]3OC)cnn12 [I-1193]	< 0.2
CNc1cc(Nc2cccn(C3CCOCC3)c2=O)nc2c(C(=O)N[C@H]3CC[C@H](OC)C3)cnn12 [I-1194]	< 0.2
CNc1cc(Nc2cccn(C3CCOCC3)c2=O)nc2c(C(=O)N[C@@H]3CC[C@@H](OC)C3)cnn12 [I-1195]	1 to 10
CNc1cc(Nc2cccn(C3CCOCC3)c2=O)nc2c(C(=O)N[C@@H]3CCCC[C@@]3(C)O)cnn12 [I-1196]	0.2 to 1
CNc1cc(Nc2cccn(C3CCOCC3)c2=O)nc2c(C(=O)N[C@H]3CCCC[C@]3(C)O)cnn12 [I-1197]	< 0.2
CNc1cc(Nc2cccn(C3CC(F)(F)C3)c2=O)nc2c(C(=O)N[C@@H]3CC[C@H]3O)cnn12 [I-1198]	< 0.2
CNc1cc(Nc2cccn(C3CC(F)(F)C3)c2=O)nc2c(C(=O)N[C@H]3CC[C@@H]3O)cnn12 [I-1199]	0.2 to 1
CNc1cc(Nc2cccn(C3CCOCC3)c2=O)nc2c(C(=O)N[C@H]3CCC[C@](C)(OC)C3)cnn12 [I-1200]	0.2 to 1
CNc1cc(Nc2cccn(C3CCOCC3)c2=O)nc2c(C(=O)N[C@@H]3CCC[C@@](C)(OC)C3)cnn12 [I-1201]	0.2 to 1
CNc1cc(Nc2cccn([C@H]3C[C@@H]3F)c2=O)nc2c(C(=O)N[C@@H]3CC[C@H](O)C3)cnn12 [I-1202]	1 to 10
CNc1cc(Nc2cccn([C@@H]3C[C@H]3F)c2=O)nc2c(C(=O)N[C@@H]3CC[C@H](O)C3)cnn12 [I-1203]	< 0.2
CNc1cc(Nc2cccn([C@H]3C[C@@H]3F)c2=O)nc2c(C(=O)N[C@H]3CC[C@@H]3OC)cnn12 [I-1204]	< 0.2
CNc1cc(Nc2cccn([C@@H]3C[C@H]3F)c2=O)nc2c(C(=O)N[C@H]3CC[C@@H]3OC)cnn12 [I-1205]	< 0.2
CNc1cc(Nc2cccn(C3CC(F)(F)C3)c2=O)nc2c(C(=O)N[C@H]3COC[C@H]3O)cnn12 [I-1206]	1 to 10
CNc1cc(Nc2cccn(C3CC(F)(F)C3)c2=O)nc2c(C(=O)N[C@@H]3CCC[C@@](C)(O)C3)cnn12 [I-1208]	1 to 10
